Assays:
[1] = molecular target: T1, μ-opioid receptor (Homo sapiens (Human), UniProt P35372); assay: μ-opioid receptor radioligand dose-displacement binding assay ([3H]-diprenorphine); conditions: [3H]-diprenorphine displacement
Protocol: Radioligand dose-displacement binding assays for μ-opioid receptors used 0.3 nM [^3H]-diprenorphine (Perkin Elmer, Shelton, Conn.), with […] membrane protein/well in a final volume of 500 μl binding buffer (10 mM MgCl2, 1 mM EDTA, 5% DMSO, 50 mM HEPES, pH 7.4). Reactions were carried out in the absence or presence of increasing concentrations of unlabeled naloxone. All reactions were conducted in 96-deep well polypropylene plates for 2 hours at room temperature. Binding reactions were terminated by rapid filtration onto 96-well Unifilter GF/C filter plates (Perkin Elmer, Shelton, Conn.), presoaked in 0.5% polyethylenimine using a 96-well tissue harvester (Perkin Elmer, Shelton, Conn.) followed by performing three filtration washes with 500 μl of ice-cold binding buffer. Filter plates were subsequently dried at 50° C. for 2-3 hours. BetaScint scintillation cocktail (Perkin Elmer, Shelton, Conn.) was added (50 μl/well), and plates were counted using a Packard Top-Count for 1 min/well. The data were analyzed using the one-site competition curve fitting functions in GraphPad PRISM™ v. 3.0 or higher (San Diego, Calif.), or an in-house function for one-site competition curve-fitting.
(§1) In TABLE 1, binding affinity of certain Compounds of the Invention to the μ- and κ-opioid receptors was determined as described above.

[2] = molecular target: T2, κ opioid receptor (Homo sapiens (Human), UniProt P41145); assay: κ-opioid receptor [35S]GTPγS functional assay, HEK-293 cells; assay type: biochemical; conditions: for Emax: relative to U69,593
Protocol: (§2) Membranes from HEK-293 cells, CHO or U-2 OS cells expressing the recombinant human kappa opioid receptor (κ) were prepared by lysing cells in ice cold hypotonic buffer (2.5 mM MgCl2, 50 mM HEPES, pH 7.4) (10 mL/10 cm dish) followed by homogenization with a tissue grinder/Teflon pestle. Membranes were collected by centrifugation at 30,000×g for 15 min at 4° C. and pellets were resuspended in hypotonic buffer to a final concentration of 1-3 mg/mL. Protein concentrations were determined using the BioRad protein assay reagent with bovine serum albumen as standard. Aliquots of κ receptor membranes were stored at −80° C.
(§3) Functional [^35S]GTPγS binding assays were conducted as follows. κ opioid receptor membrane solution was prepared by sequentially adding final concentrations of 0.026 μg/μl κ membrane protein (in-house), 10 μg/mL saponin, 3 μM GDP and 0.20 nM [^35S]GTPγS to binding buffer (100 mM NaCl, 10 mM MgCl2, 20 mM HEPES, pH 7.4) on ice. The prepared membrane solution (190 μl/well) was transferred to 96-shallow well polypropylene plates containing 10 μl of 20× concentrated stock solutions of agonist prepared in DMSO. Plates were incubated for 30 min at a temperature of about 25° C. with shaking. Reactions were terminated by rapid filtration onto 96-well Unifilter GF/B filter plates (Perkin Elmer, Shelton, Conn.) using a 96-well tissue harvester (Packard) and followed by three filtration washes with 200 μl ice-cold binding buffer (10 mM NaH2PO4, 10 mM Na2HPO4, pH 7.4). Filter plates were subsequently dried at 50° C. for 2-3 hours. Fifty μl/well scintillation cocktail (Perkin Elmer, Shelton, Conn.) was added and plates were counted in a Packard Top-Count for 1 min/well.
(§4) κ GTP EC50 is the concentration of a compound providing 50% of the maximal response for the compound at a κ receptor.
(§5) κ GTP Emax (%) is the maximal effect elicited by a compound relative to the effect elicited by U69,593.
(§6) In TABLE 2, activity response of certain Compounds of the Invention to the μ- and κ-opioid receptors was determined as described above for functional assays using HEK-293 cells.

[3] = molecular target: T1, μ-opioid receptor; assay: μ-opioid receptor [35S]GTPγS functional assay, HEK-293 cells; assay type: biochemical; conditions: for Emax: relative to DAMGO
Protocol: (§7) [^35S]GTPγS functional assays were conducted using freshly thawed μ-receptor membranes prepared in-house from a cell line expressing recombinant μ opioid receptor in a HEK-293, CHO or U-2 OS cell background, or purchased from a commercial source (Perkin Elmer, Shelton, Conn.; or DiscovRx, Fremont, Calif.). Assay reactions were prepared by sequentially adding the following reagents to binding buffer (100 mM NaCl, 10 mM MgCl2, 20 mM HEPES, pH 7.4) on ice (final concentrations indicated): membrane protein (0.026 mg/mL), saponin ([…]), GDP ([…]) and [^35S]GTPγS (0.20 nM; Perkin Elmer, Shelton, Conn.). The prepared membrane solution (190 μl/well) was transferred to 96-shallow well polypropylene plates containing 10 μl of 20× concentrated stock solutions of the agonist [D-Ala^2, N-methyl-Phe^4 Gly-ol^5]-enkephalin (DAMGO) prepared in dimethyl sulfoxide (DMSO). Plates were incubated for 30 min at about 25° C. with shaking. Reactions were terminated by rapid filtration onto 96-well Unifilter GF/B filter plates (Perkin Elmer, Shelton, Conn.) using a 96-well tissue harvester (Perkin Elmer, Shelton, Conn.) followed by three filtration washes with 200 μl of ice-cold wash buffer (10 mM NaH2PO4, 10 mM Na2HPO4, pH 7.4). Filter plates were subsequently dried at 50° C. for 2-3 hours. BetaScint scintillation cocktail (Perkin Elmer, Shelton, Conn.) was added (50 μl/well) and plates were counted using a Packard Top-Count for 1 min/well. Data were analyzed using the sigmoidal dose-response curve fitting functions in GraphPad PRISM v. 3.0, or an in-house function for non-linear, sigmoidal dose-response curve-fitting.
(§8) μ GTP EC50 is the concentration of a compound providing 50% of the maximal response for the compound at a μ-opioid receptor.
(§9) μ GTP Emax (%) is the maximal effect elicited by a compound relative to the effect elicited by DAMGO, a standard μ agonist. Generally, the μ GTP Emax (%) value measures the efficacy of a compound to treat or prevent pain or other Conditions.
as §6

[4] = molecular target: recombinant human kappa opioid receptor (κ) (Homo sapiens (Human), UniProt P41145); assay: κ-opioid receptor radioligand dose-displacement binding assay ([3H]-U69,593); conditions: [3H]-U69,593 displacement
Protocol: as §2
Radioligand dose displacement assays used 0.4 nM [^3H]-U69,593 (GE Healthcare, Piscataway, N.J.; 40 Ci/mmole) with 15 μg membrane protein (recombinant κ opioid receptor expressed in HEK 293 cells; in-house prep) in a final volume of 200 μl binding buffer (5% DMSO, 50 mM Trizma base, pH 7.4). Non-specific binding was determined in the presence of 10 μM unlabeled naloxone or U69,593. All reactions were performed in 96-well polypropylene plates for 1 hour at a temperature of about 25° C. Binding reactions were terminated by rapid filtration onto 96-well Unifilter GF/C filter plates (Perkin Elmer, Shelton, Conn.) presoaked in 0.5% polyethylenimine (Sigma). Harvesting was performed using a 96-well tissue harvester (Perkin Elmer, Shelton, Conn.) followed by five filtration washes with 200 μl ice-cold binding buffer. Filter plates were subsequently dried at 50° C. for 1-2 hours. Fifty μl/well scintillation cocktail (Perkin Elmer, Shelton, Conn.) was added and plates were counted in a Packard Top-Count for 1 min/well.
as §1

[5] = molecular target: T2, κ opioid receptor; assay: κ-opioid receptor [35S]GTPγS functional assay, U-2 OS cells; assay type: biochemical; conditions: for Emax: GTPγS, U-2 OS cells, relative to U69,593
Protocol: as §2, §3, §4, §5
(§10) In TABLE 3, activity response of certain Compounds of the Invention to the μ- and κ-opioid receptors was determined as described above for functional assays using U-2 OS cells.

[6] = molecular target: T1, μ-opioid receptor; assay: μ-opioid receptor [35S]GTPγS functional assay, U-2 OS cells; assay type: biochemical; conditions: for Emax: GTPγS, U-2 OS cells, relative to DAMGO
Protocol: as §7, §8, §9, §10

SMILES | Ki [1] | EC50 [2] | Emax ([2]; GTPγS, HEK-293 cells) | EC50 [3] | Emax ([3]; GTPγS, HEK-293 cells) | Ki [4] | EC50 [5] | Emax [5] | EC50 [6] | Emax [6] | EC50 ([2]; GTPγS, HEK-293 cells, read-out: κ EC50) | EC50 ([3]; GTPγS, HEK-293 cells, read-out: μ EC50)
COc1ccc2c(c1)[C@]13CCN(CC4CC4)[C@H](C2)[C@@H]1C1CC1C(=O)C3 (stereo partly drawn) [Compound 1, (1bR,2R,7bS)-12-(cyclopropylmethyl)-6-methoxy-1,1b,2,3,8,9a-hexahydro-2,7b-(epiminoethano)cyclopropa[a]phenanthren-9(1aH)-one] | 112 ± 26.9 nM | 136 ± 25.4 nM | 81 ± 2.27% | 53.6 ± 8.94 nM | 63.6 ± 3.47% | 8.87 ± 2.73 nM |  |  |  |  |  | 
COc1ccc2c(c1)[C@]13CCN(CC4CC4)[C@H](C2)[C@@H]1C1CC1C(O)C3 (stereo partly drawn) [Compound 2, (1bR,2R,7bS)-12-(cyclopropylmethyl)-6-methoxy-1,1a,1b,2,3,8,9,9a-octahydro-2,7b-(epiminoethano)cyclopropa[a]phenanthren-9-ol] |  | 1120 ± 230 nM | 76.7 ± 3.18% | 414 ± 73 nM | 54.3 ± 4.67% | 23.3 ± 6.06 nM |  |  |  |  |  | 
C=CCOC1C[C@]23CCN(CC4CC4)[C@H](Cc4ccc(OC)cc42)C3C2CC12 (stereo partly drawn) [Compound 3, (2R,7bS)-9-(allyloxy)-12-(cyclopropylmethyl)-6-methoxy-1,1a,1b,2,3,8,9,9a-octahydro-2,7b-(epiminoethano)cyclopropa[a]phenanthrene] | 30 ± 2.76 nM | 116 ± 27.4 nM | 66.7 ± 7.88% | 75.2 ± 9.24 nM | 84.3 ± 5.81% | 3.04 ± 0.6 nM | 29.5 ± 4.5 nM | 105 ± 4.67% | 90.7 ± 17 nM | 52.7 ± 7.54% |  | 
C=C1C[C@@]23CCN(CC4CC4)[C@H](Cc4ccc(OC)cc42)C3C2CC12 (stereo partly drawn) [Compound 4, (2R,7bS)-12-(cyclopropylmethyl)-6-methoxy-9-methylene-1,1a,1b,2,3,8,9,9a-octahydro-2,7b-(epiminoethano)cyclopropa[a]phenanthrene] | 142 ± 10.8 nM | 103 ± 36.9 nM | 106 ± 1.67% | 42.2 ± 3.59 nM | 113 ± 3.38% | 2.19 ± 0.6 nM | 8.95 ± 1.02 nM | 102 ± 1.53% | 83.1 ± 7.77 nM | 66.7 ± 4.81% |  | 
COc1ccc2c(c1)[C@]13CCN(CC4CC4)[C@H](C2)[C@@H]1[C@H]1C2CCC(CC2)[C@H]1C(=O)C3 [Compound 5, (4aR,4bR,5R,10bS,12aR)-15-(cyclopropylmethyl)-9-methoxy-2,3,4,4a,5,6,11,12a-octahydro-1H-5,10b-(epiminoethano)-1,4-ethanochrysen-12(4bH)-one] | 242 ± 46 nM |  | 19.3 ± 0.88% |  | 33 ± 4.71% | 126 ± 21.9 nM |  |  |  |  | 1370 ± 419 nM | 216 ± 16.6 nM

Source: US8957084B2, “7,8-cyclicmorphinan analogs” (Purdue Pharma L.P., priority 2012, dated 2015)
